12 compounds from patent US8309725B2 (priority 2007, dated 2012) can be followed below.

For orientation: Ki means the dissociation constant of the complex between target and ligand, obtained from inhibition or displacement.

T1 sequence (P41144 whole entry): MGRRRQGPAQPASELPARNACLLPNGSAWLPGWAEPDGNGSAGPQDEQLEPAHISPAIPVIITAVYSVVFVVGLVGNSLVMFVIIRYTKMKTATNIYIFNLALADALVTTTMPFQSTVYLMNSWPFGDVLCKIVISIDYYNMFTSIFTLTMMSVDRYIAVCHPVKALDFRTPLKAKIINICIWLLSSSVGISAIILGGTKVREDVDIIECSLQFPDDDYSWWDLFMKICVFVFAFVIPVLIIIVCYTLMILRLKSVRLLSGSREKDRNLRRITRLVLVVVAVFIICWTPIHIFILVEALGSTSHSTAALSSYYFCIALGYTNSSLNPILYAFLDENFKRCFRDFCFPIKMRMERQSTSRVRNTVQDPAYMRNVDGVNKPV

The first test has as its target T1, κ receptor (Cavia porcellus, UniProt P41144).
T1 construct: sucrose solution (0.32 M) was added to five guinea pig brains and the mixture was homogenized; from tissue; host or cells: whole guinea pig brain membrane homogenate
As to the kind of experiment: biochemical. The class given is binding, guinea pig.
Details: not given
As to `CCCCN1CCN(C(=O)Cc2ccc(Cl)c(Cl)c2)[C@H]2[C@H]1CCC[C@@H]2N1CCCC1` (racemic) [Example 19, 1-[(4aRS,8SR,8aRS)-4-butyl-8-(pyrrolidin-1-yl)perhydroquinoxalin-1-yl]-2-(3,4-dichlorophenyl)-ethan-1-one], the Ki worked out at 3.1 ± 1.8 nM.
The same measure, in the same setting: next, `COC(=O)CC(=O)N1CCN(C(=O)Cc2ccc(Cl)c(Cl)c2)[C@H]2[C@H]1CCC[C@@H]2N1CCCC1` (racemic) [Example 13, methyl 3-{(4aRS,8SR,8aRS)-1-[2-(3,4-dichlorophenyl)acetyl]-8-(pyrrolidin-1-yl)-perhydroquinoxalin-4-yl}-3-oxopropionate]: 11 ± 5.6 nM; `O=C(Cc1ccc(Cl)c(Cl)c1)N1CCN(Cc2cccnc2)[C@@H]2CCC[C@H](N3CCCC3)[C@H]21` (racemic) [Example 22, 2-(3,4-dichlorophenyl)-1-{(4aRS,8SR,8aRS)-4-[(pyridin-3-yl)methyl]-8-(pyrrolidin-1-yl)perhydroquinoxalin-1-yl}ethan-1-one]: 0.13 ± 0.02 nM; `COc1ccc(CN2CCN(C(=O)Cc3ccc(Cl)c(Cl)c3)[C@H]3[C@H]2CCC[C@@H]3N2CCCC2)cc1` (racemic) [Example 20, 2-(3,4-dichlorophenyl)-1-[(4aRS,8SR,8aRS)-4-(4-methoxybenzyl)-8-(pyrrolidin-1-yl)-perhydroquinoxalin-1-yl]ethan-1-one]: 6.8 ± 2 nM.
Same read-out and setting: next, `O=C(Cc1ccc(Cl)c(Cl)c1)N1CCN(Cc2ccccn2)[C@@H]2CCC[C@H](N3CCCC3)[C@H]21` (racemic) [Example 21, 2-(3,4-dichlorophenyl)-1-{(4aRS,8SR,8aRS)-4-[(pyridin-2-yl)methyl]-8-(pyrrolidin-1-yl)perhydroquinoxalin-1-yl}ethan-1-one]: 4.2 ± 2.6 nM.

Still in this test, the particulars now being: read-out: κ: Ki ± SEM.
Consider `COC(=O)CC(=O)N1CCN(C(=O)Cc2ccc(Cl)c(Cl)c2)C2C(N3CCC(O)C3)CCCC21` (stereo not drawn) [Example 17, methyl 3-{(4aRS,8SR,8aRS)-1-[2-(3,4-dichlorophenyl)acetyl]-8-[(3SR)- and (3RS)-3-hydroxypyrrolidin-1-yl]-perhydroquinoxalin-4-yl}-3-oxopropionate], for which the Ki amounted to 18 ± 2.2 nM.
Turning to `O=C(c1ccccc1)N1CCN(C(=O)Cc2ccc(Cl)c(Cl)c2)C2C(N3CCC(O)C3)CCCC21` (stereo not drawn) [Example 14, 1-{(4aRS,8SR,8aSR)-4-benzoyl-8-[(3SR)- and (3RS)-3-hydroxypyrrolidin-1-yl]-perhydroquinoxalin-1-yl}-2-(3,4-dichlorophenyl)ethan-1-one], the Ki was 22 ± 5.6 nM.
The same measure, in the same setting: next, `COC(=O)N1CCN(C(=O)Cc2ccc(Cl)c(Cl)c2)C2C(N3CCC(O)C3)CCCC21` (stereo not drawn) [Example 15, methyl{(4aRS,8SR,8aRS)-1-[2-(3,4-dichlorophenyl)acetyl]-8-[(3SR)- and (3RS)-3-hydroxypyrrolidin-1-yl]-perhydroquinoxalin-4-yl}carboxylate]: 11 ± 2.8 nM.
On the same count and under the same terms, next, `O=C(Cc1ccc(Cl)c(Cl)c1)N1CCN(Cc2ccccc2)C2CCCC(N3CCC(O)C3)C21` (stereo not drawn) [Example 5, 1-{(4aRS,8SR,8aSR)-4-benzyl-8-[(3SR)- and (3RS)-3-hydroxypyrrolidin-1-yl]perhydroquinoxalin-1-yl}-2-(3,4-dichlorophenyl)ethan-1-one]: 6.6 ± 1.4 nM.
The same measure, in the same setting: next, `O=C(Cc1ccc(Cl)c(Cl)c1)N1CCN(Cc2cccnc2)C2CCCC(N3CCC(O)C3)C21` (stereo not drawn) [Example 25, 2-(3,4-dichlorophenyl)-1-{(4aRS,8SR,8aSR)-4-[(pyridin-3-yl)methyl]-8-[(3SR)- and (3RS)-3-hydroxypyrrolidin-1-yl]perhydroquinoxalin-1-yl}ethan-1-one]: 3.8 ± 0.7 nM.
With `O=C(O)CC(=O)N1CCN(C(=O)Cc2ccc(Cl)c(Cl)c2)C2C(N3CCC(O)C3)CCCC21` (stereo not drawn) [Example 16, 3-{(4aRS,8SR,8aRS)-1-[2-(3,4-dichlorophenyl)acetyl]-8-[(3SR)- and (3RS)-3-hydroxypyrrolidin-1-yl]-perhydroquinoxalin-4-yl}-3-oxopropionic acid], the Ki was 482 ± 113 nM.

The test system of another test is male NMRI mice.
Assay: not given
The following applies: mouse, in vivo.
For “2-(3,4-dichlorophenyl)-1-{(4aRS,8SR,8aSR)-8-[(3SR)-3-hydroxypyrrolidin-1-yl]perhydroquinoxalin-1-yl}ethan-1-one and 2-(3,4-dichlorophenyl)-1-{(4aRS,8SR,8aSR)-8-[(3RS)-3-hydroxypyrrolidin-1-yl]perhydroquinoxalin-1-yl}ethan-1-one [Example 2]”, the “reduction in the pain in the models of the centrally mediated types of pain” value is “no significant reduction in the pain”.
